pEC50, pIC50: −log10 of the molar value. Like-named read-outs stand apart in the source and are kept apart here.
What was measured:
PDK1 = PDK1 (Homo sapiens (Human), UniProt O15530); experiment: PDK1 kinase assay (coupled PDK1/AKT/FAM-crosstide assay, IMAP fluorescence polarization); type: biochemical; conditions: inhibition of PDK1 in vitro
Summary of the method: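 PDK1 activity is measured indirectly through activation of a PIFtide-fused AKT2 construct that phosphorylates FAM-crosstide (100 nM). The reaction uses 0.75 nM PDK1, 40 μM ATP, 30 min, 25° C, with IMAP polarization detection.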

[1] = tested on: phospho-akt (Thr308) in PC-3 cells; experiment: Inhibition of phospho-akt (Thr308) in PC-3 cells, MSD phospho-akt 308 ELISA kit; type: cell-based; conditions: Homo sapiens, inhibition of P308 Akt in PC-3 cells using MSD, 2 hours, no serum, read-out: EC50
Summary of the method: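 Read-out is MSD electrochemiluminescence of Akt phosphorylated at Thr308 in lysates of PC-3 cells treated 2 h with compound in serum-free medium. Wortmannin at 5 μM defined the low control and DMSO the high control.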

Chain of PDK1 (O15530 51-359): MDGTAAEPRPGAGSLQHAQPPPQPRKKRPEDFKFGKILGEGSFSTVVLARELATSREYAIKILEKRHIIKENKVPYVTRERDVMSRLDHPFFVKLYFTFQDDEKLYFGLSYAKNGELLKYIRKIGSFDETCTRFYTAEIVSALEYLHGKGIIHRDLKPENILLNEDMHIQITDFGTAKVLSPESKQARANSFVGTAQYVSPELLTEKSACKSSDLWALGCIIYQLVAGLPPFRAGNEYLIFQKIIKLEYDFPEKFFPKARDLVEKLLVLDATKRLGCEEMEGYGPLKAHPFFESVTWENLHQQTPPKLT

Compound	pIC50 (PDK1)	pEC50 [1]	pEC50 ([1]; PC-3, 2 h)
Nc1n[nH]c2ncc(-c3ccc(CNc4ncc(C(F)(F)F)cc4C(=O)NCC4CC4)cc3)cc12 [Example 272, 2-(4-(3-amino-1H-pyrazolo [3,4-b]pyridin-5-yl)benzylamino)-N-(cyclopropylmethyl)-5-(trifluoromethyl) nicotinamide]	6.00 to 7.00	5.00 to 6.00	
C[C@@H](NC(=O)c1cc(C(F)(F)F)cnc1NCc1ccc(-c2cnc3[nH]nc(N)c3c2)cc1)c1ccc(Br)cc1 [Example 275, (R)-2-(4-(3-amino-1H-pyrazolo[3,4-b]pyridin-5-yl)benzylamino)-N-(1-(4-bromophenyl)ethyl)-5-(trifluoromethyl) nicotinamide]	< 5.30	< 5.00	
CC(C)c1ccc(NC(=O)c2cc(C(F)(F)F)cnc2NCc2ccc(-c3cnc4[nH]nc(N)c4c3)cc2)cc1 [Example 280, 2-(4-(3-amino-1H-pyrazolo [3,4-b]pyridin-5-yl)benzylamino)-N-(4-isopropylphenyl)-5-(trifluoromethyl)nicotinamide]	6.00 to 7.00	5.00 to 6.00	
Nc1n[nH]c2ncc(-c3ccc(CNc4ncc(C(F)(F)F)cc4C(=O)N[C@@H](CO)c4ccc(Br)cc4)cc3)cc12 [Example 283, (R)-2-(4-(3-amino-1H-pyrazolo [3,4-b]pyridin-5-yl)benzylamino)-N-(1-(4-bromophenyl)-2-hydroxyethyl)-5-(trifluoromethyl)nicotinamide]	< 5.30	5.00 to 6.00	
Nc1n[nH]c2ncc(-c3ccc(CNc4ncc(C(F)(F)F)cc4C(=O)NC4CCC(F)(F)CC4)cc3)cc12 [Example 284, 2-(4-(3-amino-1H-pyrazolo [3,4-b]pyridin-5-yl)benzylamino)-N-(4,4-difluorocyclohexyl)-5-(trifluoromethyl)nicotinamide]	< 5.30	5.00 to 6.00	
CN1CCN(Cc2ccc(NC(=O)c3cc(C(F)(F)F)cnc3NCc3ccc(-c4cnc5[nH]nc(N)c5c4)cc3)cc2)CC1 [Example 285, 2-(4-(3-amino-1H-pyrazolo [3,4-b]pyridin-5-yl)benzylamino)-N-(4-((4-methylpiperazin-1-yl)methyl)phenyl)-5-(trifluoromethyl)nicotinamide]	5.30 to 6.00	< 5.00	
CN(C(=O)c1cc(C(F)(F)F)cnc1NCc1ccc(-c2cnc3[nH]nc(N)c3c2)cc1)c1ccc(F)cc1 [Example 290, 2-(4-(3-amino-1H-pyrazolo [3,4-b]pyridin-5-yl)benzylamino)-N-(4-fluorophenyl)-N-methyl-5-(trifluoromethyl) nicotinamide]	< 5.30	5.00 to 6.00	
Nc1n[nH]c2ncc(-c3ccc(CNc4ncc(C(F)(F)F)cc4C(=O)N4CC(F)(F)C4)cc3)cc12 [Example 293]	5.30 to 6.00		< 5.00
Nc1n[nH]c2ncc(-c3ccc(CNc4ncc(C(F)(F)F)cc4C(=O)NC4CCCCC4)cc3)cc12 [Example 297, 2-(4-(3-amino-1H-pyrazolo [3,4-b]pyridin-5-yl)benzylamino)-N-cyclohexyl-5-(trifluoromethyl)nicotinamide]	> 7.00	> 6.00	
Nc1n[nH]c2ncc(-c3ccc(CNc4ncc(C(F)(F)F)cc4C(=O)NC4COC4)cc3)cc12 [Example 298, 2-(4-(3-amino-1H-pyrazolo [3,4-b]pyridin-5-yl)benzylamino)-N-(oxetan-3-yl)-5-(trifluoromethyl) nicotinamide]	5.30 to 6.00	< 5.00	
Nc1n[nH]c2ncc(-c3ccc(CNc4ncc(C(F)(F)F)cc4C(=O)NC4CCC4)cc3)cc12 [Example 299, 2-(4-(3-amino-1H-pyrazolo [3,4-b]pyridin-5-yl)benzylamino)-N-cyclobutyl-5-(trifluoromethyl)nicotinamide]	> 7.00	5.00 to 6.00	
N#Cc1ccc(NC(=O)c2cc(C(F)(F)F)cnc2NCc2ccc(-c3cnc4[nH]nc(N)c4c3)cc2)cc1 [Example 300, 2-(4-(3-amino-1H-pyrazolo [3,4-b]pyridin-5-yl)benzylamino)-N-(4-cyanophenyl)-5-(trifluoromethyl)nicotinamide]	> 7.00	> 6.00	
COc1cccc(NC(=O)c2cc(C(F)(F)F)cnc2NCc2ccc(-c3cnc4[nH]nc(N)c4c3)cc2)c1 [Example 301, 2-(4-(3-amino-1H-pyrazolo [3,4-b]pyridin-5-yl)benzylamino)-N-(3-methoxyphenyl)-5-(trifluoromethyl)nicotinamide]	> 7.00	5.00 to 6.00	

The remaining lines, values ahead:

pIC50 (PDK1)	pEC50 [1]	pEC50 ([1]; PC-3, 2 h)	Compound
> 7.00	5.00 to 6.00		Nc1n[nH]c2ncc(-c3ccc(CNc4ncc(C(F)(F)F)cc4C(=O)NCc4cscn4)cc3)cc12 [Example 273, 2-(4-(3-amino-1H-pyrazolo [3,4-b]pyridin-5-yl)benzylamino)-N-(thiazol-4-ylmethyl)-5-(trifluoromethyl) nicotinamide]
> 7.00	5.00 to 6.00		Nc1n[nH]c2ncc(-c3ccc(CNc4ncc(C(F)(F)F)cc4C(=O)Nc4ccccn4)cc3)cc12 [Example 274]
> 7.00	5.00 to 6.00		Nc1n[nH]c2ncc(-c3ccc(CNc4ncc(C(F)(F)F)cc4C(=O)Nc4ccc(C(F)(F)F)nc4)cc3)cc12 [Example 276, 2-(4-(3-amino-1H-pyrazolo [3,4-b]pyridin-5-yl)benzylamino)-5-(trifluoromethyl)-N-(6-(trifluoromethyl)pyridin-3-yl)nicotinamide]
> 7.00	> 6.00		C[C@H](NC(=O)c1cc(C(F)(F)F)cnc1NCc1ccc(-c2cnc3[nH]nc(N)c3c2)cc1)c1ccc(Cl)cc1 [Example 277, 2-(4-(3-amino-1H-pyrazolo [3,4-b]pyridin-5-yl)benzylamino)-N-(1-(4-chlorophenyl)ethyl)-5-(trifluoromethyl) nicotinamide]
> 7.00	> 6.00		Nc1n[nH]c2ncc(-c3ccc(CNc4ncc(C(F)(F)F)cc4C(=O)Nc4c(F)cc(F)cc4F)cc3)cc12 [Example 278, 2-(4-(3-amino-1H-pyrazolo [3,4-b]pyridin-5-yl)benzylamino)-5-(trifluoromethyl)-N-(2,4,6-trifluorophenyl)nicotinamide]
> 7.00	> 6.00		Nc1n[nH]c2ncc(-c3ccc(CNc4ncc(C(F)(F)F)cc4C(=O)NCc4ccc(Cl)cc4)cc3)cc12 [Example 279, 2-(4-(3-amino-1H-pyrazolo [3,4-b]pyridin-5-yl)benzylamino)-N-(4-chlorobenzyl)-5-(trifluoromethyl)nicotinamide]
> 7.00	> 6.00		Nc1n[nH]c2ncc(-c3ccc(CNc4ncc(C(F)(F)F)cc4C(=O)NCc4cccc(Cl)c4)cc3)cc12 [Example 281, 2-(4-(3-amino-1H-pyrazolo [3,4-b]pyridin-5-yl)benzylamino)-N-(3-chlorobenzyl)-5-(trifluoromethyl)nicotinamide]
> 7.00	5.00 to 6.00		C[C@H](NC(=O)c1cc(C(F)(F)F)cnc1NCc1ccc(-c2cnc3[nH]nc(N)c3c2)cc1)c1ccc(Br)cc1 [Example 282, (S)-2-(4-(3-amino-1H-pyrazolo [3,4-b]pyridin-5-yl)benzylamino)-N-(1-(4-bromophenyl)ethyl)-5-(trifluoromethyl)nicotinamide]
> 7.00	> 6.00		Nc1n[nH]c2ncc(-c3ccc(CNc4ncc(C(F)(F)F)cc4C(=O)NCc4ccc(F)c(Cl)c4)cc3)cc12 [Example 286]
> 7.00	5.00 to 6.00		Nc1n[nH]c2ncc(-c3ccc(CNc4ncc(C(F)(F)F)cc4C(=O)Nc4ccncc4)cc3)cc12 [Example 288, 2-(4-(3-amino-1H-pyrazolo [3,4-b]pyridin-5-yl)benzylamino)-N-(pyridin-4-yl)-5-(trifluoromethyl) nicotinamide]
> 7.00	> 6.00		Nc1n[nH]c2ncc(-c3ccc(CNc4ncc(C(F)(F)F)cc4C(=O)Nc4cccnc4)cc3)cc12 [Example 289, 2-(4-(3-amino-1H-pyrazolo [3,4-b]pyridin-5-yl)benzylamino)-N-(pyridin-3-yl)-5-(trifluoromethyl) nicotinamide]
> 7.00	> 6.00		Nc1n[nH]c2ncc(-c3ccc(CNc4ncc(C(F)(F)F)cc4C(=O)Nc4ccc(F)cc4F)cc3)cc12 [Example 291, 2-(4-(3-amino-1H-pyrazolo [3,4-b]pyridin-5-yl)benzylamino)-N-(2,4-difluorophenyl)-5-(trifluoromethyl)nicotinamide]
> 7.00	> 6.00		Nc1n[nH]c2ncc(-c3ccc(CNc4ncc(C(F)(F)F)cc4C(=O)Nc4ccccc4)cc3)cc12 [Example 292, 2-(4-(3-amino-1H-pyrazolo [3,4-b]pyridin-5-yl)benzylamino)-N-phenyl-5-(trifluoromethyl)nicotinamide]
> 7.00	5.00 to 6.00		Nc1n[nH]c2ncc(-c3ccc(CNc4ncc(C(F)(F)F)cc4C(=O)Nc4cccc(C(F)(F)F)c4)cc3)cc12 [Example 294]
> 7.00	> 6.00		Cc1cc(F)ccc1NC(=O)c1cc(C(F)(F)F)cnc1NCc1ccc(-c2cnc3[nH]nc(N)c3c2)cc1 [Example 295, 2-(4-(3-amino-1H-pyrazolo [3,4-b]pyridin-5-yl)benzylamino)-N-(4-fluoro-2-methylphenyl)-5-(trifluoromethyl)nicotinamide]
> 7.00	> 6.00		Nc1n[nH]c2ncc(-c3ccc(CNc4ncc(C(F)(F)F)cc4C(=O)Nc4ccc(C(F)(F)F)cc4)cc3)cc12 [Example 296]
